According to patent publication US7344704B2, “Use of perfluoroalkyl-containing metal complexes as contrast media in MR-imaging for visualization of intravascular thrombi” (Schering AG, priority 2002, dated 2008):

Experiments:
Type in all cases: physicochemical
[1] = Hydrodynamic micelle diameter 2 Rh by photon correlation spectroscopy
Source text: The amphiphilic compounds according to the invention are associated in solution and are present as aggregates. The size (2 Rh) of such aggregates (e.g., micelles, rods, wafers, etc.) can be determined with the aid of […] (PCS).
As a second criterion, the hydrodynamic micelle diameter 2 Rh, which must be >1 nm, is therefore used. In particular, those perfluoroalkyl-containing metal complexes according to the invention whose 2 RH≧3 nm, quite especially preferably >4 nm, are suitable.
(§1) Both the determination of the CMC and the photon correlation spectroscopy are described in H.-D. Dörfler, “Grenzflächen-und Kolloidchemie [Interface and Colloid Chemistry],” Weinheim, New York, Basel, Cambridge, Tokyo, VSH 1994.

[2] = Proton relaxivity R^1 in plasma (Minispec P 20); conditions: in plasma (bovine) at 40° C., field strength 0.47 Tesla
Description: As a third criterion, the proton-relaxivity in plasma (R^1) at 40° C. and a field strength of 0.47 tesla are used. The relaxivity, which is indicated in [l/mmol·s], is the quantitative measurement for the shortening of relaxation time T^1 of the protons. For the purpose according to the invention, the relaxivity must be as high as possible and >10 l/mmol·s, preferably >13 l/mmol·s, especially preferably >15 l/mmol·s.
Relaxivity R^1 [l/mmol·s] of the MR-contrast media according to the invention was determined with the Minispec P 20 device of the Bruker Company. The measurements were taken at 40° C. and a field strength of 0.47 tesla. Eight measuring points were recorded by each T1-sequence: 180°-TI-90°, inversion recovery. As a medium, bovine plasma of the Kraeber Company was used. The contrast medium concentrations [mmol/l] in the batches were between 0.30 and 1.16.
The measurements were carried out in plasma at 40° C. and a field strength of 0.47 Tesla.

[3] = Critical micelle formation concentration (CMC) by tensiometry
Description: In aqueous systems, these amphiphilic molecules show the properties that are characteristic of standard surfactants (such as, e.g., sodium dodecylsulfate, SDS). They thus reduce the surface tension of water. By tensiometry, the so-called CMC (critical micelle formation concentration in mol/l) can be determined. In this respect, the surface tension is determined based on the concentration of the substance to be measured. The CMC can be calculated from the plot of the surface tension function (c) that is obtained. The critical micelle formation concentration of the compounds according to the invention must be <10^−3 mol/l, preferably <10^−4 mol/l.
as §1

2 Rh (Hydrodynamic Micelle Diameter) [1] | R^1 (Relaxivity) [2] | CMC (Critical Micelle Formation Concentration) [3] | Compound
4.7 nm | 27.9 l: mmol · s | 8.1e-06 mol/L | COCCOCCOCCOCCOCC(=O)NCCCC[C@H](NC(=O)COCCC(F)(F)C(F)(F)C(F)(F)C(F)(F)C(F)(F)C(F)(F)C(F)(F)C(F)(F)F)C(=O)NCC(O)CN1CCN(CC(=O)[O-])CCN(CC(=O)[O-])CCN(CC(=O)[O-])CC1.[Gd+3] (stereo partly drawn) [MK 28, 6-N-3,6,9,12,15-Pentaoxahexadecanoyl-2-N-2H,2H,4H,4H,5H,5H-3-oxaperfluorotridecanoyl-L-lysine-N-{1,4,7-tris[carboxylatomethyl]-1,4,7,10-tetraazacyclododecane-10-(2-hydroxy-3-yl), gadoliniumcomplex}-amide]
7.9 nm | 27.9 l: mmol · s | 7e-06 mol/L | O=C([O-])CN1CCN(CC(=O)[O-])CCN(CC(O)CNC(=O)CNC(=O)CNC(=O)CNC(=O)COCCC(F)(F)C(F)(F)C(F)(F)C(F)(F)C(F)(F)C(F)(F)C(F)(F)C(F)(F)F)CCN(CC(=O)[O-])CC1.[Gd+3] (stereo not drawn) [MK 30, 1,4,7-Tris(carboxylatomethyl)-1,4,7,10-tetraazacyclododecane-10-{2-hydroxy-3-N-[triglycidyl-N-(2H,2H,4H,4H,5H,5H-3-oxa-perfluorotridecanoyl)]amino}-propyl, gadolinium complex]
2.2 nm | 19.5 l: mmol · s | 0.00089 mol/L | gadolinium complex of 1,4,7-tris{1,4,7-tris(N-(carboxylatomethyl)-10-[N-1-methyl-3,6-diaza-2,5,8-trioxooctane-1,8-diyl)]-1,4,7,10-tetraazacyclododecane, Gd complex}-10-[N-2H,2H,4H,4H,5H,5H-3-oxa-perfluorotridecanoyl]-1,4,7,10-tetraazacyclododecane [MK 12]
4.8 nm | 17.7 l: mmol · s | 7.6e-05 mol/L | Gadolinium complex of 10-{1-carboxy-2-carbonyl-[piperazin-1-yl-4-(perfluorooctylsulfonyl)]}-ethyl-1,4,7-tris(carboxymethyl)-1,4,7,10-tetraazacyclododecane, Sodium salt [MK 29]
